The values that follow come from publication PMC3311999 (2011).

The target of the assay is PI3K (PIK3CA/PIK3R1) (Homo sapiens, UniProt P42336). Description: Michaelis-Menten kinetics. The assay is classed as biochemical.
PI3K (PIK3CA/PIK3R1), sequence (P42336 whole entry): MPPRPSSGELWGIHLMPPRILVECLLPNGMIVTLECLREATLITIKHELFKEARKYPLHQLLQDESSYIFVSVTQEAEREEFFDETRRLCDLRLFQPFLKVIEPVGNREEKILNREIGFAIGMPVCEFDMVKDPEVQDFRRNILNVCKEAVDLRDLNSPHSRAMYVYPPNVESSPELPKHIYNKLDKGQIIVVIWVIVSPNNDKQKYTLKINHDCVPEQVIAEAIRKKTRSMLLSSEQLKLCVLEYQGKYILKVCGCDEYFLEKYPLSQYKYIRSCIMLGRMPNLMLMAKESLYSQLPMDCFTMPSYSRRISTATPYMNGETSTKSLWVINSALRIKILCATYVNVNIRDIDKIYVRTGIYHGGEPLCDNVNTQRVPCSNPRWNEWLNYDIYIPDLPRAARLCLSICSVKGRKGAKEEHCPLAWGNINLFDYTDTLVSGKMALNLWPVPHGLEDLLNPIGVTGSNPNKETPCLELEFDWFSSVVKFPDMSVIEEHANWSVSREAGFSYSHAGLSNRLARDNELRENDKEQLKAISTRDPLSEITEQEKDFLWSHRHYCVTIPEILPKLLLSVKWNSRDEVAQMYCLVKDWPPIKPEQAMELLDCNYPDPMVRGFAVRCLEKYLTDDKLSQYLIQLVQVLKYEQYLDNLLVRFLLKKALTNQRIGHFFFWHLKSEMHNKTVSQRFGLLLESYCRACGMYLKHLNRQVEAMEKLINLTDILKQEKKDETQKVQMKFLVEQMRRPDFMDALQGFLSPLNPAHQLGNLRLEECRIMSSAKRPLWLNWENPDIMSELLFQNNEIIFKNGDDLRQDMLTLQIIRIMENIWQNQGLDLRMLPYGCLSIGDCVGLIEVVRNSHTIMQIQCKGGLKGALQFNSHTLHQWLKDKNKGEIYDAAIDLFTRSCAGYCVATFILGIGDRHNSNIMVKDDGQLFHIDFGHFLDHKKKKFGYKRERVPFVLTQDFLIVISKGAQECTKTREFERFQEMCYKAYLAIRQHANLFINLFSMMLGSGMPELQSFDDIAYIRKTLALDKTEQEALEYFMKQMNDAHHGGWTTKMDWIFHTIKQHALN
PI3K (PIK3CA/PIK3R1), sequence (P27986 2-724 partner): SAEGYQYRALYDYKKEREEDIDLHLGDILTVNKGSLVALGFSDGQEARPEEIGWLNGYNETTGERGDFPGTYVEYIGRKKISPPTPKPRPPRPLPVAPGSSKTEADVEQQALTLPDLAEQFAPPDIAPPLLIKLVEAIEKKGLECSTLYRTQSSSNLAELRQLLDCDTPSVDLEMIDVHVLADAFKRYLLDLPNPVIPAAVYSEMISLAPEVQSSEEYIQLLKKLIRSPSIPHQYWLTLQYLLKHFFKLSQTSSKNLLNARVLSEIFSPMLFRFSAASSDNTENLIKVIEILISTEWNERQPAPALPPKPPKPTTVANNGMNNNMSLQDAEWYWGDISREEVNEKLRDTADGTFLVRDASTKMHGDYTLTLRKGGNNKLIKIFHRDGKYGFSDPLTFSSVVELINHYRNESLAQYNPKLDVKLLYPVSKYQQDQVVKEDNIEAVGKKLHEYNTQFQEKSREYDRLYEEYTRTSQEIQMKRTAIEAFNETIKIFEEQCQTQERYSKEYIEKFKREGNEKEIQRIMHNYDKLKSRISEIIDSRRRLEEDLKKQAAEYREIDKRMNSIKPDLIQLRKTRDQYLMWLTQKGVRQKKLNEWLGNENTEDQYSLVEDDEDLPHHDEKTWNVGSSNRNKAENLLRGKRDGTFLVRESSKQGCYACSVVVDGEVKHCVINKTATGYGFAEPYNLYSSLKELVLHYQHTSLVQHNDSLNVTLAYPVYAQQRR

Take BODIPY-PIP2: the Km (as a rule, the substrate concentration at which the rate is half of its maximum) is 68.7 ± 5.2 µM.

For FL-PIP2, the Km was determined as 44.8 ± 9.8 µM.
